Our source for the pEC50 values is the supplement of paper PMC5580409.

The assay concerns Plasmodium falciparum 3D7. The assay is described as follows: pEC50, asexual blood-stage growth inhibition. The settings on record: 72 h. On the procedure: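 Held-out test set measured in the Guy lab in 2014 with the same procedure as the primary St. Jude screen. P. falciparum 3D7 blood-stage culture (2% hematocrit, 1% parasitemia) was treated with compound for 72 h at 37 °C, and growth was read by SYBR Green I fluorescence. EC50 came from a four-parameter Hill fit over a 10-point dilution series […].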
On to `CN1CCN(CC(O)Cn2c3ccccc3c3cc(Cl)ccc32)CC1` (configuration not stated), for which the pEC50 (commonly the EC50 on a negative log10 scale, so that one unit is a factor of ten) is less than 4.82. On to `COc1ccccc1-c1c(C(F)(F)F)oc2c(CN3CCOCC3)c(O)ccc2c1=O`, for which the pEC50 is less than 4.82. Take `Cc1cccc(C2(c3cccc(C)c3)CC2C(=O)Nc2ccc([N+](=O)[O-])cc2O)c1` (configuration not stated): the pEC50 worked out at 5.36. The value for `Oc1ccc(Br)cc1CN1CCN(C2CCCCCC2)CC1` was 6.34. For `N=c1n(CCN2CCCCC2)c2ccccc2n1CC(O)COc1ccc(Cl)cc1Cl` (configuration not stated) the value was 5.53; for `Nc1ccc(-c2nc3cc(-c4nc5cc(N)ccc5[nH]4)ccc3[nH]2)cc1`, 5.64. For the compound `OC(CNCc1ccccc1)Cn1c2ccc(Cl)cc2c2cc(Cl)ccc21` (configuration not stated), the pEC50 was 5.73.

With `COc1ccccc1-c1c(C(F)(F)F)oc2c(CN(C)C3CCCCC3)c(O)ccc2c1=O`, the pEC50 is less than 4.82. The value for `O=C(NC1C2CC3CC(C2)CC1C3)c1ccc2c(=O)n3c(nc2c1)CCCCC3` (configuration not stated) was less than 4.82.

For `Cc1ccc(NCC(O)Cn2c3ccccc3c3ccccc32)cc1` (configuration not stated), the pEC50 is less than 4.82. In the case of `O=c1c(Oc2ccc3ccccc3c2)c(C(F)(F)F)oc2c(CN3CCCC3)c(O)ccc12`, the pEC50 is 5.27. The value for `CCOc1ccc(C(O)Cn2c(=N)n(CCN3CCCCC3)c3ccccc32)cc1` (configuration not stated) was less than 4.82.

`Cc1ccc2c(c1)c1c3n2CCCN(Cc2ccccc2F)C3CCC1` (configuration not stated) yielded a pEC50 of 5.01. The value for `O=c1c2ccccc2nc(SCc2cn3ccccc3n2)n1Cc1ccco1` was less than 4.82. `C=CCn1c(=O)/c(=C/C=C2\C=CN(CC)c3ccccc32)s/c1=C\c1sc(-c2ccccc2)c(-c2ccccc2)[n+]1CC` gave a pEC50 of 5.37. The value for `CCCCNCC(O)COc1ccc(Cl)c(C)c1` (configuration not stated) was 5.14. For `CC(C)(C)NC(=O)c1cn(C2CCCCC2)cc(C(=O)N2CCC(c3ccccc3)CC2)c1=O` the value was less than 4.82. Compound `Cc1cccc(NC(=O)CSc2nc(C)c(C)n2-c2ccccc2)c1C` had a pEC50 of less than 4.82.

`Cc1ccc2nc(-c3cccnc3)cc(C(=O)N3CCN(C(c4ccccc4)c4ccccc4)CC3)c2c1`: the pEC50 came to 5.71. The value for `Cc1ccc(Nc2cc(N3CCN(C(=O)c4ccc(C)cc4)CC3)ncn2)cc1` was 6.13. The value for `CC1=C(C(=O)OCCOc2ccccc2)C(c2ccc(F)cc2)C2=C(CC(c3ccccc3)CC2=O)N1` (configuration not stated) was less than 4.82.

`CC(=O)Nc1ccc(-c2nc3cc(-c4nc5cc(NC(C)=O)ccc5[nH]4)ccc3[nH]2)cc1`: the pEC50 turned out to be 6.5. The compound `CCCCN(CCCC)CC(O)COc1ccccc1[N+](=O)[O-]` (configuration not stated) returned a pEC50 of 7.13. For `Cc1cccc2c(C(=O)N3CCN(C/C=C/c4ccccc4)CC3)cc(-c3cccnc3)nc12` the value was less than 4.82. In turn, `CCOc1ccc(-c2nc3cc(C)ccc3[nH]2)cc1` displayed a pEC50 of 5.12. The value for `COCCNCC(O)Cn1c2ccc(Cl)cc2c2cc(Cl)ccc21` (configuration not stated) was 5.63. The value for `CCCCNC(=O)c1cn(C2CCCCC2)cc(C(=O)NC2CCN(Cc3ccccc3)C2)c1=O` (configuration not stated) was less than 4.82; that for `OC(CNCc1ccc(OCc2ccccc2)cc1)c1ccccc1` (configuration not stated) was 5.38; that for `OC(CNC1CCCCC1)Cn1c2ccccc2c2ccccc21` (configuration not stated) was 5.33. Consider `Cc1ccc(C)c(Oc2c(C(F)(F)F)oc3c(CN4CCN(C)CC4)c(O)ccc3c2=O)c1`, for which the pEC50 is less than 4.82. For `Cn1nccc1C(=O)Nc1cc(Oc2ccc(Cl)cc2)cc([N+](=O)[O-])c1` the value was less than 4.82; for `CCCCn1c(=N)n(CC(O)c2ccc(OC)cc2)c2ccccc21` (configuration not stated), less than 4.82; for `CCN(CC)c1nc(Nc2ccc(O)cc2)nc(Nc2cc(C)ccc2C)n1`, less than 4.82. The value for `CCOC(=O)c1cnc2c(OC)cccc2c1Nc1cccc(C(C)=O)c1` was 5.55; that for `OC(CNCCc1ccccc1)Cn1c2ccc(Br)cc2c2cc(Br)ccc21` (configuration not stated) was 5.81; that for `Fc1ccccc1N1CCN(CC2CC3C=CC2C3)CC1` (configuration not stated) was less than 4.82.

Compound `CCN(CC)CCn1c(=N)n(CC(O)COc2ccccc2)c2ccccc21` (configuration not stated) gave a pEC50 of less than 4.82.
